Assays:
Experiment in all cases: electrochemical aptamer-based sensor, square-wave voltammetry titration (KDM)
[1] = test system: vanc-28 (DNA, aptamer) GCGAGGGTACCGCTTAAAGTGGGTCGGC; conditions: PBS (ion concentrations not given), room temperature, 0% carboxylate (6-mercaptohexanol) SAM, immobilised aptamer
[2] = test system: vanc-45 (also printed vanc-48) (DNA, aptamer) CGAGGGTACCGCAATAGTACTTATTGTTCGCCTATTGTGGGTCGG; conditions: PBS (ion concentrations not given), room temperature, 0% carboxylate (6-mercaptohexanol) SAM, immobilised aptamer
[3] = test system: procaine (DNA, aptamer) AGACAAGGAAAATCCTTCAACGAAGTGGGTCG; conditions: undiluted bovine blood, room temperature and 37 °C; 0% carboxylate SAM; no Kd, upper plateau not reached
[4] = test system: tryptophan (DNA, aptamer) CCGGTGGTGTAGTTCCGGCGTGGGGAAGG; conditions: PBS (ion concentrations not given), room temperature, 0% carboxylate SAM, immobilised aptamer, biphasic, higher affinity event

CN[C@H](CC(C)C)C(=O)N[C@H]1C(=O)N[C@@H](CC(N)=O)C(=O)N[C@H]2C(=O)N[C@H]3C(=O)N[C@H](C(=O)N[C@H](C(=O)O)c4cc(O)cc(O)c4-c4cc3ccc4O)[C@H](O)c3ccc(c(Cl)c3)Oc3cc2cc(c3O[C@@H]2O[C@H](CO)[C@@H](O)[C@H](O)[C@H]2O[C@H]2C[C@](C)(N)[C@H](O)[C@H](C)O2)Oc2ccc(cc2Cl)[C@H]1O
Kd [1]: 0.6 ± 0.1 µM | Kd [2]: 15.2 ± 0.4 µM

CCN(CC)CCOC(=O)c1ccc(N)cc1
binding [3]: yes

N[C@@H](Cc1c[nH]c2ccccc12)C(=O)O
Kd [4]: 13.0 ± 1.4 µM

— paper PMC11803614 (2025)
